Several values for one entry are separate records, joined by “and”; a condition that tells them apart may be missing. Identical values can stand only once.
Legend:
Type in all cases: cell-based
[1] = molecular target: T1, 320 non-olfactory GPCRs (Homo sapiens, UniProt Q86SM5); details: receptor MRGPRG; replicate values, Fig_4g
T1 construct: expressed in transfected cells; host or cells: HTLA cells

[2] = molecular target: T2, 320 non-olfactory GPCRs (Homo sapiens, UniProt P51677)
T2 construct: expressed in transfected cells; host or cells: HTLA cells
T2 sequence (P51677 whole entry): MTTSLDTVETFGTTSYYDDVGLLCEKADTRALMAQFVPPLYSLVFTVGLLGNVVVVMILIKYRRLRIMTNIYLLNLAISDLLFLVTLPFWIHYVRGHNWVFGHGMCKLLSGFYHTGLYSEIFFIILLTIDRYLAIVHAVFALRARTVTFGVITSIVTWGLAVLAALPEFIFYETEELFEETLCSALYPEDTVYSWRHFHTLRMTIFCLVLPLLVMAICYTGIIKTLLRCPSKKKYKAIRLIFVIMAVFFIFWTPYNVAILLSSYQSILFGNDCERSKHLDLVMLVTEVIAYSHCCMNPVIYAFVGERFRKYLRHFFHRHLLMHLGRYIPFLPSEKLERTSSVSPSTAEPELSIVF

[3] = molecular target: T3, 320 non-olfactory GPCRs (Homo sapiens, UniProt P49146); details: receptor NPY2R; replicate values, Fig_4g
T3 construct: expressed in transfected cells; host or cells: HTLA cells
T3 sequence (P49146 whole entry): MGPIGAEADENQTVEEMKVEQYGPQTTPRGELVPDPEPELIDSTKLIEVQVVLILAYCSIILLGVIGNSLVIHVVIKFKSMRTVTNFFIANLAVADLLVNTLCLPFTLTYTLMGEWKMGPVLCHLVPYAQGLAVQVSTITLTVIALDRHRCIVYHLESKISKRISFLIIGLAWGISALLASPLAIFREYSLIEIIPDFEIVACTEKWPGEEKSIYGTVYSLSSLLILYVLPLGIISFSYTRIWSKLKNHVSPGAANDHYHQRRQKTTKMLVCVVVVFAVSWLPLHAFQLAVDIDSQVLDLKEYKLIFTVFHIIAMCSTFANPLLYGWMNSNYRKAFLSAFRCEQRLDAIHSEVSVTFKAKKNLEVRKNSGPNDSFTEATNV

[4] = molecular target: T4, 320 non-olfactory GPCRs (Homo sapiens, UniProt P08912)
T4 construct: expressed in transfected cells; host or cells: HTLA cells
T4 sequence (P08912 whole entry): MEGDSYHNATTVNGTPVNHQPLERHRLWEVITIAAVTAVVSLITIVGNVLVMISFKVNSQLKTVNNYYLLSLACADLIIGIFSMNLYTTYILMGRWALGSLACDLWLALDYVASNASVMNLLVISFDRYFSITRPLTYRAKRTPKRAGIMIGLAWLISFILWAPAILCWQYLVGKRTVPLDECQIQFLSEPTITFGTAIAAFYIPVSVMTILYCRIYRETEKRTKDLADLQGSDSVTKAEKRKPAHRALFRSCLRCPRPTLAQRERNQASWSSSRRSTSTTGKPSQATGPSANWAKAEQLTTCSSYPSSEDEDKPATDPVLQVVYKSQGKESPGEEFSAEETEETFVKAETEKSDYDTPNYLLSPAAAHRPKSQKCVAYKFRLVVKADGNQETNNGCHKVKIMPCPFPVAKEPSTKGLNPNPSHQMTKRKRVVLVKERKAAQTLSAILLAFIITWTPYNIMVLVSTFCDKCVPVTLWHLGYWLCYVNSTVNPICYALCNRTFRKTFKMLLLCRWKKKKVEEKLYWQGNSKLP
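For Fold of Basal in this document: compound tested at 1 µM final concentration.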
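For GPCRome agonism screen response in this document: fold over basal response of each receptor without drug.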

T1 sequence (Q86SM5 whole entry): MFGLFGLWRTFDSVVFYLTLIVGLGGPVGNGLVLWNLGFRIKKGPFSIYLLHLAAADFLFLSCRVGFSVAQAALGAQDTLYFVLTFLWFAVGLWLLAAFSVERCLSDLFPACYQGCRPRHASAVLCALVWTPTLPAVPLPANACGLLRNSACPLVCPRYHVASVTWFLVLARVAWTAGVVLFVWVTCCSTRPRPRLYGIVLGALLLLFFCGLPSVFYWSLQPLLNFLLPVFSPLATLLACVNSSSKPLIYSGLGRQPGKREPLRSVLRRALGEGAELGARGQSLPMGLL

`CCOc1cccc2cc(C(C)NCC3(O)CCCCC3)oc12` (stereo not shown) [O4LE6] was tested, and the “GPCRome agonism screen response” value [1] was 0.767 and 0.7489 and 0.544 and 0.824, the “Fold of Basal” value [2] was 1.539 and 1.182 and 0.9454 and 0.9656 and the “GPCRome agonism screen response” value [3] was 0.7835 and 0.8337 and 0.6188 and 0.7117. For the same molecule, the “Fold of Basal” value [4] was 0.9113 and 1.052 and 0.8596 and 0.9753.
